Experimental data as given in patent US9228009B2, “Multi-hierarchical self-assembly of a collagen mimetic peptide” (WILLIAM MARSH RICE UNIVERSITY, priority 2011, dated 2016).
Non-standard residues stand in square brackets, D forms with d. Residues, ends and D or L forms follow the SMILES beside them. Hyp = O=C(O)[C@@H]1C[C@@H](O)CN1

Key:
[1] = Circular dichroism thermal unfolding; type: physicochemical
Procedure: All peptide concentrations were measured by weight. All samples were adjusted to pH 7 with sodium hydroxide prior to the addition of buffer and then annealed for 15 minutes at 85° C. Lastly, the samples were incubated at room temperature for at least 12 hours prior to characterization to ensure complete assembly. Time course rheological studies are given in FIG. 13 to support this time scale.
All spectra and thermal unfolding studies were performed on a Jasco J-810 spectropolarimeter equipped with a Peltier temperature control system. Quartz cells were used with pathlengths of 0.01 cm and 0.1 cm depending on the peptide concentration and buffer. Spectra were collected from 190-250 nm. Melting experiments were performed from 5 to 85° C., monitoring at 225 nm, and the first derivative of the thermal unfolding curve was taken in order to determine the melting temperature of the sample. The molar residual ellipticity (MRE) is calculated from the measured ellipticity using the equation:
[formula] where θ is the ellipticity in mdeg, m is the molecular weight in g/mol, c is the concentration in mg/ml, l is the pathlength of the cuvette in cm, and nr is the number of amino acids in the peptide. The spectrum for 1.0% by weight is only shown from 250-205 nm due to the increase in background noise for higher concentration samples at lower wavelengths.

[2] = Hydrogel control in HBSS without collagenase; type: physicochemical; settings: no collagenase (HBSS), 2.0% by weight gel
Procedure: (§1) As a simple functional test of the collagen hydrogel mimetic, we compared its ability to be broken down by collagenase (type IV, Invitrogen) the primary component of which is MMP2, a protease known to specifically cleave between the X and Gly residues of an X-Y-Gly repeat found in a triple helix.^42 (Pro-Lys-Gly)4(Pro-Hyp-Gly)4(Asp-Hyp-Gly)4 hydrogels were prepared at a concentration of 2.0% by weight in phosphate buffer and treated with either collagenase in HBSS (Hank's Balanced Salt Solution) or HBSS alone. The samples were allowed to incubate at room temperature (approximately 20° C.), 30° C. and 37° C. Hydrogels of rat-tail collagen were prepared in the same fashion with and without collagenase.
(§2) Using the previously described gelation procedure, gels of (Pro-Lys-Gly)4(Pro-Hyp-Gly)4(Asp-Hyp-Gly)4 were prepared at a concentration of 2.0% by weight in 10 mM phosphate buffer. Directly after annealing, 100 μl of solution was pipetted into two wells of a 96-well cell culture plate and allowed to incubate at room temperature overnight. A 0.3% by weight collagenase type IV solution was prepared by dissolving 15.0 mg of non-sterile lyophilized enzyme into 5 ml of Hank's Balanced Salt Solution (HBSS). The solution was then filter sterilized using a 0.2 μm filter attached to a syringe. Enzyme and buffer were from Invitrogen (Carlsbad, Calif.). After gelation was complete, 150 μl of collagenase was added on top of one well and 150 μL of HBSS was added on the other serving as a control. Three plates were prepared and incubated at room temperature (about 20° C.), 30° C. and 37° C. Each condition was observed and imaged at 0, 1, 4, 6, 12, 24 and 48 hours after addition of the collagenase or HBSS. Plates containing rat-tail collagen gels at a concentration of 3.0% by weight were prepared and analyzed in an identical manner. Table 1 and Table 2 below show collagenase mediated degradation of (Pro-Lys-Gly)4(Pro-Hyp-Gly)4(Asp-Hyp-Gly)4 and rat-tail collagen hydrogels, respectively. Samples were tested at room temperature (approximately 20° C., 30° C. and 37° C.) with and without collagenase. […] Control samples of (Pro-Lys-Gly)4(Pro-Hyp-Gly)4(Asp-Hyp-Gly)4 at room temperature and 30° C. were intact after 48 hours. However at 37° C. the hydrogels dissolved after 24 hours due to the proximity of this temperature to the triple helices melting temperature.

[3] = system: collagenase type IV; test: Collagenase degradation study of hydrogels; type: in vitro ADME; settings: for hydrogel degradation state: w/ collagenase, 2.0% by weight gel
Procedure: as §1, §2

**Q.** Which results are given for NCCCC[C@H](NC(=O)[C@@H]1CCCN1)C(=O)NCC(=O)N1CCC[C@H]1C(=O)N[C@@H](CCCCN)C(=O)NCC(=O)N1CCC[C@H]1C(=O)N[C@@H](CCCCN)C(=O)NCC(=O)N1CCC[C@H]1C(=O)N[C@@H](CCCCN)C(=O)NCC(=O)N1CCC[C@H]1C(=O)N1C[C@H](O)C[C@H]1C(=O)NCC(=O)N1CCC[C@H]1C(=O)N1C[C@H](O)C[C@H]1C(=O)NCC(=O)N1CCC[C@H]1C(=O)N1C[C@H](O)C[C@H]1C(=O)NCC(=O)N1CCC[C@H]1C(=O)N1C[C@H](O)C[C@H]1C(=O)NCC(=O)N[C@@H](CC(=O)O)C(=O)N1C[C@H](O)C[C@H]1C(=O)NCC(=O)N[C@@H](CC(=O)O)C(=O)N1C[C@H](O)C[C@H]1C(=O)NCC(=O)N[C@@H](CC(=O)O)C(=O)N1C[C@H](O)C[C@H]1C(=O)NCC(=O)N[C@@H](CC(=O)O)C(=O)N1C[C@H](O)C[C@H]1C(=O)NCC(=O)O [(Pro-Lys-Gly)4(Pro-Hyp-Gly)4(Asp-Hyp-Gly)4] (H-PKGPKGPKGPKGP[Hyp]GP[Hyp]GP[Hyp]GP[Hyp]GD[Hyp]GD[Hyp]GD[Hyp]GD[Hyp]G-OH; N-terminus assumed)?
**A.** triple helix melting temperature ([1]; 10 mM phosphate buffer, pH 7, first derivative of CD unfolding curve at 225 nm): 40-41 °C; triple helix cooperative transition (melting) temperature ([1]; 1.0% by weight in phosphate): 41 °C; melting transition ([1]; gel-forming samples in additional buffers (water, Tris, PBS), pH 7): 40-41 °C; melting temperature ([1]; samples that did not form gels in additional buffers (water, Tris, PBS), pH 7): around 23 °C; hydrogel degradation state ([2]; 20° C., 0 h): intact; hydrogel degradation state ([2]; 20° C., 1 h): intact; hydrogel degradation state ([2]; 20° C., 4 h): intact; hydrogel degradation state ([2]; 20° C., 6 h): intact; hydrogel degradation state ([2]; 20° C., 12 h): intact; hydrogel degradation state ([2]; 20° C., 24 h): intact; hydrogel degradation state ([2]; 20° C., 48 h): intact; hydrogel degradation state ([2]; 30° C., 0 h): intact; hydrogel degradation state ([2]; 30° C., 1 h): intact; hydrogel degradation state ([2]; 30° C., 4 h): intact; hydrogel degradation state ([2]; 30° C., 6 h): intact; hydrogel degradation state ([2]; 30° C., 12 h): intact; hydrogel degradation state ([2]; 30° C., 24 h): intact; hydrogel degradation state ([2]; 30° C., 48 h): intact; hydrogel degradation state ([2]; 37° C., 0 h): intact; hydrogel degradation state ([2]; 37° C., 1 h): intact; hydrogel degradation state ([2]; 37° C., 4 h): intact; hydrogel degradation state ([2]; 37° C., 6 h): intact; hydrogel degradation state ([2]; 37° C., 12 h): intact; hydrogel degradation state ([2]; 37° C., 24 h): dissolved; hydrogel degradation state ([2]; 37° C., 48 h): dissolved; time after which hydrogel treated with collagenase was fully dissolved ([3]; 30° C.): 4 h; time after which hydrogel treated with collagenase was fully dissolved ([3]; 37° C.): 1 h; time after which hydrogel treated with collagenase was fully dissolved ([3]; room temperature (approximately 20° C.)): 4 h; hydrogel degradation state ([3]; 20° C., 0 h): intact; hydrogel degradation state ([3]; 20° C., 1 h): intact; hydrogel degradation state ([3]; 20° C., 4 h): dissolved; hydrogel degradation state ([3]; 20° C., 6 h): dissolved; hydrogel degradation state ([3]; 20° C., 12 h): dissolved; hydrogel degradation state ([3]; 20° C., 24 h): dissolved; hydrogel degradation state ([3]; 20° C., 48 h): dissolved; hydrogel degradation state ([3]; 30° C., 0 h): intact; hydrogel degradation state ([3]; 30° C., 1 h): intact; hydrogel degradation state ([3]; 30° C., 4 h): dissolved; hydrogel degradation state ([3]; 30° C., 6 h): dissolved; hydrogel degradation state ([3]; 30° C., 12 h): dissolved; hydrogel degradation state ([3]; 30° C., 24 h): dissolved; hydrogel degradation state ([3]; 30° C., 48 h): dissolved; hydrogel degradation state ([3]; 37° C., 0 h): intact; hydrogel degradation state ([3]; 37° C., 1 h): dissolved; hydrogel degradation state ([3]; 37° C., 4 h): dissolved; hydrogel degradation state ([3]; 37° C., 6 h): dissolved; hydrogel degradation state ([3]; 37° C., 12 h): dissolved; hydrogel degradation state ([3]; 37° C., 24 h): dissolved; hydrogel degradation state ([3]; 37° C., 48 h): dissolved
